Experimental data taken from patent publication US4625016A, “Collagen inhibiting compositions and processes for manufacturing and using same” (University of Medicine and Dentistry of New Jersey, priority 1983, dated 1986).

Columns and labels:
KB cells = conditions: as disclosed in 266 Nature 63 (1977); cited from earlier work
[1] = tested on: normal human skin fibroblasts; experiment: Attachment and growth of human skin fibroblasts in plastic culture flasks (assay of collagen synthesis); format: cell-based
Description: The principle of the test system is that when collagen-producing cells, such as normal skin fibroblasts are introduced into a plastic flask containing a nutrient medium, the cells attach to the surface of the flask and grow. However, firm attachment of normal fibroblasts to the surface of the flask requires that the cells first synthesize a "pad" comprised of collagen fibers and several other materials through which the collagen producing cells attach to the plastic surface. If synthesis of normal collagen fibers is prevented, the collagen-producing cells, such as the normal skin fibroblasts, will not attach and therefore will not grow. […] The manner in which cis-4-hydroxy-L-proline produces these effects has been disclosed in 336 Biochimica et Biophysica Acta 234, (1974); 174 Archives of Biochemistry and Biophysics 381 (1976); 226 Nature 63 (1977); and 272 Nature 622 (1978).
None of the three polymeric compositions are soluble in water and are consequently dissolved in 50% acetic acid and water. The solution is placed dropwise on a microscopic coverslip and the solvent evaporated with warm air from a hair dryer. The coverslip, coated with the composition, is then placed in a plastic culture flask (75 cm^2; Falcon). From 5×10^5 to 10.5×10^5 normal human fibroblasts in 2 ml of cell culture medium are added to the flask. The flask is incubated at 37° C. in 5% carbon dioxide and 95% air for 3 to 5 days, and the number of cells in the flask counted. Control sample contained microscopic coverslips treated with an equal volume of solvent and air-dried.

## O=C(O)[C@@H]1C[C@H](O)CN1 [cis-4-Hydroxy-L-proline, cis-4-hydroxy-L-proline]
KB cells
  Growth of cells which do not produce collagen (in words): not inhibited
[1]; Expt. 1, dosage level 250 μg/ml, initial 5.0 × 10^5, 3 to 5 days, None: 67
  Cells per flask, Final: < 1 × 10^5
[1]; Expt. 2, dosage level 100 μg/ml, initial 10.3 × 10^5, None: 98
  Cells per flask, Final: 2.2 × 10^5
[1]; Expt. 3, dosage level 50 μg/ml, initial 7.0 × 10^5, None: 56
  Cells per flask, Final: 12 × 10^5
[1]; Expt. 3, dosage level 150 μg/ml, initial 7.0 × 10^5, None: 56
  Cells per flask, Final: 1.3 × 10^5
[1]; no dose stated
  Attachment and growth of normal fibroblasts (in words): prevents attachment and growth
